Our source for the Ki and CC50 values is publication doi:10.1101/2022.05.12.491652v1 (biorxiv, 2022).

Broadly, the Ki is a dissociation constant, usually derived from enzyme kinetics or from competition with a known ligand. By CC50 is commonly meant the concentration at which the toxic effect on the cells reaches its halfway point.

One data set concerns the target T1, PfClpQ (Plasmodium falciparum, UniProt Q8I5B6).
T1 sequence (Q8I5B6 38-207): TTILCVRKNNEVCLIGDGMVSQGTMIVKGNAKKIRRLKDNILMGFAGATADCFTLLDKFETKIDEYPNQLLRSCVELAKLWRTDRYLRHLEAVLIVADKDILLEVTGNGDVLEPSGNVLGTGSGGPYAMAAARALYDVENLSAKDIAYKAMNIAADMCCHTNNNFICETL
Kind of data set: fluorogenic peptide. Format: biochemical.

A short description of the next data set: in vitro. The conditions noted are these: human, hela cells.

`CCn1nc(-c2ccc(C(=O)OC)cc2)nc2c(=O)n(C)c(=O)nc1-2` [CN172, methyl 4-{1-ethyl-6-methyl-5,7-dioxopyrimido[5,4-e][1,2,4]triazin-3-yl}benzoate] had a Ki at PfClpQ of 0.44 µM. In “in vitro”, this molecule returned a 50% cytotoxic concentration (CC50) of 9.58 µM.

The molecule `Cn1nc(-c2ccncc2)nc2c(=O)n(C)c(=O)nc1-2` [ICGEB-L1, 1,6-dimethyl-3-(pyridin-4-yl)-1H,5H,6H,7H-pyrimido[5,4-e][1,2,4]triazine-5,7-dione] registered a CC50 in “in vitro” of 8.4 µM.

Molecule `CCn1nc(-c2ccc(Cl)cc2)nc2c(=O)n(C)c(=O)nc1-2` [ICGEB-L2, 3-(4-chlorophenyl)-1-ethyl-6-methyl-1H,5H,6H,7H-pyrimido [5,4-e] [1,2,4] triazine-5,7-dione] gave a CC50 in “in vitro” of 9.93 µM.

As to `CCn1nc(/C=C/c2ccccc2)[n+]([O-])c2c(=O)n(C)c(=O)nc1-2` [ICGEB-L3, 1-ethyl-6-methyl-5,7-dioxo-3-[(1E)-2-phenylethenyl]-1H,5H,6H,7H-pyrimido[5,4-e][1,2,4]triazin-4-ium-4-olate], in the data set “in vitro”, it took 10 µM to reach half-maximal cytotoxicity (CC50).
